What was measured:
SRPK1 = SRPK1 (Homo sapiens, UniProt Q96SB4); assay: In vitro SRPK1 assay (Kinase-Glo); assay type: biochemical
CYP2D6 = biological target: T1, CYP2D6 (Homo sapiens, UniProt P10635); assay: biochemical; assay type: in vitro ADME
T1 construct: from tissue; host or cells: human liver microsomes
Method: (§1) 158 μL of Human Liver Microsomes working stock solution is added to a reaction plate (0.253 mg/mL, 158 μL/well). 2 μL of test compound/Positive Inhibitor working solutions is then added to the reaction plate (2 μL/well). For control, 2 μL of Acetonitrile (ACN) containing DMSO (without inhibitor) is added to the reaction plate. 20 μL of substrate pool is added to all the wells of the reaction plate. The samples are mixed in a vortexer and pre-incubated at 37° C. for 20 min. The NADPH solution is pre-warmed at 37° C. for 5 min. 20 μL of pre-warmed NADPH solution is added to the reaction plate and then incubated at 37° C. for 10 min. The reaction is terminated by adding cold ACN (200 μL/well) to the reaction mixture and centrifuging at 4,000 rpm for 20 minutes. After centrifugation, supernatant is separated and analyzed by LC-MS/MS.
(§2) % inhibition and IC50 are calculated using Graphpad Prism software.

CYP2C9 = biological target: T2, CYP2C9 (Homo sapiens, UniProt P11712); assay: CYP inhibition assay, human liver microsomes, substrate diclofenac; assay type: in vitro ADME; details: human liver microsomes, 10 min incubation, LC-MS/MS; read-out: CYP Inhibition Activity (IC50/nM) CYP2C9
T2 construct: from tissue; host or cells: human liver microsomes
T2 sequence (P11712 whole entry): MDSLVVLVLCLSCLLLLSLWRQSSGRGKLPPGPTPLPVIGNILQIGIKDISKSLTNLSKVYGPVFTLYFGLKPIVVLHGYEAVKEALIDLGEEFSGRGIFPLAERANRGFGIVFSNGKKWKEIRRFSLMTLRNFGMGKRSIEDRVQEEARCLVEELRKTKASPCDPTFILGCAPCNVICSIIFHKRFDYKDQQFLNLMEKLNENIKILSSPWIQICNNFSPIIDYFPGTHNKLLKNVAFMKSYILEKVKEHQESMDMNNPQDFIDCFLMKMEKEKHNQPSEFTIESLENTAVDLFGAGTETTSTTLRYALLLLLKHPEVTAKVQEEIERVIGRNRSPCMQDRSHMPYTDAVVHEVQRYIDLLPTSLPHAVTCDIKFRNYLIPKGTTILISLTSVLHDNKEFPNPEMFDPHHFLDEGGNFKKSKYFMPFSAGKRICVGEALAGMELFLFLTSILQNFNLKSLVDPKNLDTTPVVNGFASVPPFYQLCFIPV
Method: as §1, with “2” for “158 μL of Human Liver Microsomes working stock solution is added to a reaction plate (0.253 mg/mL, 158 μL/well). 2”
as §2

CYP3A4 = biological target: T3, CYP3A4 (Homo sapiens, UniProt P08684); assay: CYP inhibition assay, human liver microsomes, substrate midazolam; assay type: in vitro ADME; details: human liver microsomes, 10 min incubation, LC-MS/MS; read-out: CYP Inhibition Activity (IC50/nM) CYP3A4
T3 construct: from tissue; host or cells: human liver microsomes
T3 sequence (P08684 whole entry): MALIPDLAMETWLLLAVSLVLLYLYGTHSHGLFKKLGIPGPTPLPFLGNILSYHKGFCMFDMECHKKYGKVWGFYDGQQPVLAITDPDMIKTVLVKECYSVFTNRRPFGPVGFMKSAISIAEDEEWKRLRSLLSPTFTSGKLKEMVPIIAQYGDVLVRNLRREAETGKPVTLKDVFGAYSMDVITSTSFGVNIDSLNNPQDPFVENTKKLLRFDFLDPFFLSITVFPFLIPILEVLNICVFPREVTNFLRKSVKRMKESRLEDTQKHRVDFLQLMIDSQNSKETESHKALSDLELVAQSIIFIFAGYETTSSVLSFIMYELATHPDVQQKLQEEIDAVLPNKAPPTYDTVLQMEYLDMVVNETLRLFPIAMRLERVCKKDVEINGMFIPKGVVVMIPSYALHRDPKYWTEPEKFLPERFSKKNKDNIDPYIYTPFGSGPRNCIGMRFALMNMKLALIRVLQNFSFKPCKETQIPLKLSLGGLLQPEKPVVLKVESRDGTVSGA
Method: as §1, with “2” for “158 μL of Human Liver Microsomes working stock solution is added to a reaction plate (0.253 mg/mL, 158 μL/well). 2”
as §2

CYP2C19 = biological target: T4, CYP2C19 (Homo sapiens, UniProt P33261); assay: CYP inhibition assay, human liver microsomes, substrate S-mephenytoin; assay type: in vitro ADME; details: human liver microsomes, 10 min incubation, LC-MS/MS; read-out: CYP Inhibition Activity (IC50/nM) CYP2C19
T4 construct: from tissue; host or cells: human liver microsomes
T4 sequence (P33261 whole entry): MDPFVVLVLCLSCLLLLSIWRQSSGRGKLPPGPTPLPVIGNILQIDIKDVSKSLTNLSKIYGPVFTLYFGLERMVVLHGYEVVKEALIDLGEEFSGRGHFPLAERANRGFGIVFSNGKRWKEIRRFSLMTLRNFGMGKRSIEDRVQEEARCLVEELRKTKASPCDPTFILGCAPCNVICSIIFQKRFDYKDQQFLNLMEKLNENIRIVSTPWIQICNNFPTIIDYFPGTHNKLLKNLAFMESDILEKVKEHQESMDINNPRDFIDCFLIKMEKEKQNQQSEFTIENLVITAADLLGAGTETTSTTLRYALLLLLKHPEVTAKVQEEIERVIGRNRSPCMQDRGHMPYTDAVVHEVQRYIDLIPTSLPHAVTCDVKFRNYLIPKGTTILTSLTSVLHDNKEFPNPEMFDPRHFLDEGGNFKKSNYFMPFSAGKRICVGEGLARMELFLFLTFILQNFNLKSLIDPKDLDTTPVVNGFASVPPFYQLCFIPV
Method: as §1, with “2” for “158 μL of Human Liver Microsomes working stock solution is added to a reaction plate (0.253 mg/mL, 158 μL/well). 2”
as §2

CYP1A2 = biological target: T5, CYP1A2 (Homo sapiens, UniProt P05177); assay: CYP inhibition assay, human liver microsomes, substrate tacrine; assay type: in vitro ADME; details: human liver microsomes, 10 min incubation, LC-MS/MS; read-out: CYP Inhibition Activity (IC50/nM) CYP1A2
T5 construct: from tissue; host or cells: human liver microsomes
T5 sequence (P05177 1-516): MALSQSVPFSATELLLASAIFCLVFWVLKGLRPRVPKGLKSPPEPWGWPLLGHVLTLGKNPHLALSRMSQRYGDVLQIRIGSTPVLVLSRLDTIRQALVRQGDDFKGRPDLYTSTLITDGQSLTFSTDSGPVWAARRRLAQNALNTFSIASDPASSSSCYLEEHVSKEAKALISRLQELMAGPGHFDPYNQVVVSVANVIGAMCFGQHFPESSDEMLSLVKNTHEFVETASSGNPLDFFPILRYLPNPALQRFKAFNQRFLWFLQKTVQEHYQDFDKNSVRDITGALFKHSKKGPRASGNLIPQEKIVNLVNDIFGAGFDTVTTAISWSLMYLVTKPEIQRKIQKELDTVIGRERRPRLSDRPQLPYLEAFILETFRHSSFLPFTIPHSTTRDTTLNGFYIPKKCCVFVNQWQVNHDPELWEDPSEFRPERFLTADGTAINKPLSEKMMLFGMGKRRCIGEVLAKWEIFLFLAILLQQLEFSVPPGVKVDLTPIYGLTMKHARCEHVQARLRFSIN
Method: as §1, with “2” for “158 μL of Human Liver Microsomes working stock solution is added to a reaction plate (0.253 mg/mL, 158 μL/well). 2”
as §2

Sequence of SRPK1 (Q96SB4 whole entry, species assumed): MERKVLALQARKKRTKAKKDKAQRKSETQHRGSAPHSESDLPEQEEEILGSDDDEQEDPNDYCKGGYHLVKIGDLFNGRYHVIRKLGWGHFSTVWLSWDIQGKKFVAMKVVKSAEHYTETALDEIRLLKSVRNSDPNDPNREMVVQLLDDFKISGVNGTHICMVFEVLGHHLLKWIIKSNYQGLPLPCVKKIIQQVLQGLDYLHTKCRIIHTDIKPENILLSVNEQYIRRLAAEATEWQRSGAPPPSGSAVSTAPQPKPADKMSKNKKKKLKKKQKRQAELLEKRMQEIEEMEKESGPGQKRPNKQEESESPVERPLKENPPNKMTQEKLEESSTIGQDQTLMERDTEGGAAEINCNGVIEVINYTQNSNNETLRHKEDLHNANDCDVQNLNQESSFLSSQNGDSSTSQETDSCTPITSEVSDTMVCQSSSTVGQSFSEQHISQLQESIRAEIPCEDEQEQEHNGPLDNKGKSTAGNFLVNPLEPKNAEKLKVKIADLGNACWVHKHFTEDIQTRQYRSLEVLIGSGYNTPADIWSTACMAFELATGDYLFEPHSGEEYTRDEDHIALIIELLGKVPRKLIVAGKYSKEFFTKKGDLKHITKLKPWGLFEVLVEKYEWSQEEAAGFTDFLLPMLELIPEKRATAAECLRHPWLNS
T1 sequence (P10635 whole entry): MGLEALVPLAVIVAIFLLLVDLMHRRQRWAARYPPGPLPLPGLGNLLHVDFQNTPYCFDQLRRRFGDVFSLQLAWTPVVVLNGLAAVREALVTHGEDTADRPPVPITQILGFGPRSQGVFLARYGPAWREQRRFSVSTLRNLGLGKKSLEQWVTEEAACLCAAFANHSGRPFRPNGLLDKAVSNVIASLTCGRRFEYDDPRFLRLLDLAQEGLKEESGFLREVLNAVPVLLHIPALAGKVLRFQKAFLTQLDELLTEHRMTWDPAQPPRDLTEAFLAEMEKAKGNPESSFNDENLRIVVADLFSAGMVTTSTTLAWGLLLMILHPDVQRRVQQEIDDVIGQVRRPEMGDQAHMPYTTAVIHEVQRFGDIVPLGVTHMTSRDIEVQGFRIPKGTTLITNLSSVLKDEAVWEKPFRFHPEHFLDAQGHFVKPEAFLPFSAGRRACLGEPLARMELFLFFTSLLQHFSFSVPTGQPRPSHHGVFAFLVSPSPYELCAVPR

Compound	IC50 (SRPK1)	IC50 (CYP2D6)	IC50 (CYP2C9)	IC50 (CYP3A4)	IC50 (CYP2C19)	IC50 (CYP1A2)
CC1(O)CCN(c2ccc(Cl)cc2NC(=O)c2ccccn2)CC1 [Example 2, N-(5-chloro-2-(4-hydroxy-4-methylpiperidin-1-yl)-phenyl)picolinamide]	25 nM	> 30000 nM	13500 nM	10000 nM	18200 nM	5890 nM
CC1(O)CCN(c2ccc(C3CC3)cc2NC(=O)c2ccccn2)CC1 [Example 3, N-(5-cyclopropyl-2-(4-hydroxy-4-methylpiperidin-1-yl)phenyl)-picolinamide]	19 nM	> 30000 nM	12000 nM	17100 nM	7160 nM	14400 nM
CC1(O)CCN(c2ccc(C(F)(F)F)cc2NC(=O)c2ccc(-c3ccncc3)o2)CC1 [Example 4, N-(2-(4-hydroxy-4-methylpiperidin-1-yl)-5-(trifluoromethyl)phenyl)-5-(pyridin-4-yl)furan-2-carboxamide]	5 nM	3450 nM	2480 nM	4900 nM	2480 nM	23200 nM
CC1(O)CCN(c2ccc(OC(F)(F)F)cc2NC(=O)c2ccc(-c3ccncc3)o2)CC1 [Example 10, N-(2-(4-hydroxy-4-methylpiperidin-1-yl)-5-(trifluoromethoxy)phenyl)-5-(pyridin-4-yl)furan-2-carboxamide]	6 nM	5420 nM	1770 nM	3780 nM	2670 nM	14400 nM
CC1(O)CCN(c2ccc(C(F)(F)F)cc2NC(=O)c2ccc(C3CCOCC3)o2)CC1 [Example 11, N-(2-(4-hydroxy-4-methylpiperidin-1-yl)-5-(trifluoromethyl)-phenyl)-5-(tetrahydro-2H-pyran-4-yl)furan-2-carboxamide]	3 nM	15400 nM	9310 nM	16300 nM	10200 nM	17900 nM

Now from value to molecule:

IC50 (SRPK1)	IC50 (CYP2D6)	IC50 (CYP2C9)	IC50 (CYP3A4)	IC50 (CYP2C19)	IC50 (CYP1A2)	Compound
0.5 nM	5130 nM	660 nM	670 nM	2180 nM	8130 nM	CC1(O)CCN(c2ccc(Cl)cc2NC(=O)c2ccc(-c3ccncc3)o2)CC1 [Example 5, N-(5-chloro-2-(4-hydroxy-4-methylpiperidin-1-yl)phenyl)-5-(pyridin-4-yl)furan-2-carboxamide]
1.7 nM	4830 nM	790 nM	1050 nM	1010 nM	11700 nM	CC1(O)CCN(c2ccc(C3CC3)cc2NC(=O)c2ccc(-c3ccncc3)o2)CC1 [Example 6, N-(5-cyclopropyl-2-(4-hydroxy-4-methylpiperidin-1-yl)phenyl)-5-(pyridin-4-yl)furan-2-carboxamide]
1.7 nM	2300 nM	600 nM	1200 nM	1400 nM	4000 nM	CC1(O)CCN(c2ccc(C(F)F)cc2NC(=O)c2ccc(-c3ccncc3)o2)CC1 [Example 7, N-(5-(difluoromethyl)-2-(4-hydroxy-4-methyl-piperidin-1-yl)phenyl)-5-(pyridin-4-yl)furan-2-carboxamide]
14.4 nM	6100 nM	1100 nM	1700 nM	2900 nM	11100 nM	Cc1ccc(N2CCC(C)(O)CC2)c(NC(=O)c2ccc(-c3ccncc3)o2)c1 [Example 8, N-(2-(4-hydroxy-4-methylpiperidin-1-yl)-5-methylphenyl)-5-(pyridin-4-yl)furan-2-carboxamide]
4.4 nM	5100 nM	350 nM	360 nM	890 nM	4990 nM	COc1ccc(N2CCC(C)(O)CC2)c(NC(=O)c2ccc(-c3ccncc3)o2)c1 [Example 9, N-(2-(4-hydroxy-4-methylpiperidin-1-yl)-5-methoxyphenyl)-5-(pyridin-4-yl)furan-2-carboxamide]

From patent US11420969B2 (Exonate Limited, priority 2017, dated 2022)
